Structures can show the parent of a compound that is named as a salt.
Experiments:
Acute toxicity in mice = details: mouse, in vivo, ip; intraperitoneal, male I.C.R. mice, survivals at one week
Procedure: Test: Acute Toxicity in Mice
A normal saline containing each of the test compound mentioned below and 0.5% carboxymethylcellulose was given intraperitoneally to male I.C.R. (Institute of Cancer Research) strain mice aged 5 weeks, weighing 33-35 g. LD50 values were calculated from the survivals of mice at one week after the administration of the test compound.

[1] = test system: P.C.A. reaction in S.D. strain rats; assay: Inhibition test of P.C.A. (Passive Cutaneous Anaphylaxis) reaction in S.D. strain rats, rat reaginic antiserum against egg albumin; type: in vivo
Procedure: (a) Rat reaginic antiserum against egg albumin
A solution of egg albumin (2 mg) in B. pertussis-diphtheria-tetanus mixed vaccine (1 ml.) (made by Takeda Chemical Industries Ltd.) was mixed with an equal volume of incomplete adjuvant (made by Difco Laboratories) to give an emulsion. The emulsion was given subcutaneously in a single dose of 1 ml. divided equally (0.25 ml.) to the four foot pads of male S.D. (Sprague-Dawley) strain rats aged 8 weeks, each weighing about 300 g.
Five days after the administration, a solution of egg albumin (0.5 mg.) in B. pertussis-diphtheria-tetanus mixed vaccine (0.5 ml.) was further given intramuscularly in a single dose of 0.5 ml. divided equally (0.25 ml.) to 2 places of thigh of the same rats.
Three days after the second administration, blood samples were collected from femoral artery of the rats and allowed to stand at ambient temperature for 5 hours. The separated supernatant was centrifuged at 4° C. (10,000 r.p.m.× 1 hour). The antisera thus obtained were stored at -80° C. prior to use.
(§1) (2) Inhibition test of P.C.A. (Passive Cutaneous Anaphylaxis) reaction
(§2) (a) Inhibitory effect on P.C.A. reaction in S.D. strain rats
(§3) Fifteen male S.D. strain rats aged 8 weeks, each weighing about 270 g were divided equally into 3 groups.
(§4) A rat reaginic antiserum (0.07 ml.) as prepared by the above (1)-(a) was given intracutaneously to the depilated back of each rat of Group I and Group II. On the other hand, a rat normal serum (0.07 ml.) was given intracutaneously to the depilated back of each rat of Group III, respectively.
(§5) Thirty hours after the administration, a normal saline (0.5 ml.) containing egg albumin (7.5 mg.) and Evans blue (2.5 mg.) was intravenously given to each rat of Groups I-III in order to bring about P.C.A., respectively.
(§6) Beforehand, 3 hours, 1 hour and […] before the intravenous administration to bring about P.C.A., a normal saline (1 ml.) containing the prescribed amount of N-methyllaurotetanine hydrochloride and carboxymethylcellulose (0.5 %) was given orally, intraperitoneally or intravenously to each rat of Group I and a normal saline (1 ml.) containing only carboxymethylcellulose (0.5% was also given orally, intraperitoneally or intravenously to each rat of Group II.
(§7) Thirty minutes after challenge with antigen, the animals were sacrificed and then skinned. To each of the sensitized spots punched, was added a mixture (7 ml.) of acetone and 2% aqueous sodium alkylbenzenesulfonate solution (4:1) and then the mixture was homogenized. The homogenate was shaken at ambient temperature for 2 hours and filtered. Optical density at 620 nm of the filtrate was determined and from the value of the optical density, inhibitory effect of P.C.A. reaction was calculated by using the following equation. [formula] A: Optical Density Value of Group II B: Optical Density Value of Group I
(§8) C: Optical Density Value of Group III

[2] = test system: P.C.A. reaction in S.D. strain rats; assay: Inhibition test of P.C.A. reaction in S.D. strain rats, rat hyperimmune antiserum against egg albumin; type: in vivo
Procedure: (§9) (b) Rat hyperimmune antiserum against egg albumin
(§10) A solution of egg albumin (20 mg.) in normal saline (1 ml.) was mixed with complete adjuvant (1 ml.) (made by Difco Laboratories) to given an emulsion. The emulsion was subcutaneously given in a single dose of 1 ml. divided equally (0.25 ml.) to the four pads of male S.D. strain rats aged 6 weeks, each weighing about 200 g. (The first immunization).
(§11) One week after the administration, an emulsion which was prepared by mixing a solution of egg albumin (10 mg.) in normal saline (1 ml.) with complete adjuvant (1 ml.) was further given subcutaneously (at 3 places) and intramuscularly (at 1 place) in a single dose of 1 ml. divided equally (0.25 ml.) to thigh of the same rats. (The second immunization).
(§12) Three weeks after the second administration, a solution of egg albumin (1 mg.) in normal saline (1 ml.) was further given intracutaneously in a single dose of 0.3 ml. divided equally (0.1 ml.) to 3 places of the same rats. (The third immunization).
(§13) One week after the third administration, blood samples were collected from rats and treated in substantially the same manner as described in the above item (a). The antisera thus obtained were stored at -80° C. prior to use.
as §1, §2, §3, §4, §5, §6, §7, §8
(§14) Further, an inhibition test on P.C.A. reaction using the rat hyperimmuneantiserum against egg albumin was carried out in substantially the same manner as described in the above, excepting that the intravenous administration to bring about P.C.A. was carried out at 5.5 hours after the administration of the serum and antiserum. And inhibitory effect on the P.C.A. reaction was also calculated in substantially the same manner as described in the above.

[3] = test system: P.C.A. reaction in Donryu strain rats; assay: Inhibition of P.C.A. reaction in Donryu strain rats, rat hyperimmune antiserum against egg albumin; type: in vivo; details: Donryu rat (Table 2-I)
Procedure: as §9, §10, §11, §12, §13, §14
(b) Inhibitory effect on P.C.A. reaction in Donryu strain rat
The following tests were carried out in substantially the same manner as described in the above item (2)-(a).
(i) Test compound: N:methyllaurotetanine hydrochloride
Test animal: Male Donryu strain rats aged 8 weeks, weighing about 130 g.
Challenge: A normal saline (0.3 ml.) containing egg albumin (4.5 mg.) and Evans blue (1.5 mg.).
(ii) Test commpound: glaucine or boldine
Test animal: Male Donryu strain rats aged 8 weeks, weighing 140-150 g.
Challenge: the same as the above item (b)-(i).

COc1cc2c(cc1O)CC1c3c(cc(OC)c(OC)c3-2)CCN1C (stereo not drawn) [N-Methyllaurotetanine hydrochloride]
LD50 at 168 h (Acute toxicity in mice): 91.7 mg/kg | Inhibitory effect on P.C.A. reaction ([1]; intraperitoneal, 4 mg/kg): 6% | Inhibitory effect on P.C.A. reaction ([1]; intraperitoneal, 13 mg/kg): 80% | Inhibitory effect on P.C.A. reaction ([1]; intraperitoneal, 40 mg/kg): 85% | ED50 ([1]; intravenous): 2.5 mg/kg | Inhibitory effect on P.C.A. reaction ([1]; intravenous, 1 mg/kg): 24% | Inhibitory effect on P.C.A. reaction ([1]; intravenous, 3 mg/kg): 57% | Inhibitory effect on P.C.A. reaction ([1]; intravenous, 9 mg/kg): 85% | ED50 ([1]; ip, intraperitoneal): 4.8 mg/kg | ED50 ([1]; oral): 100 mg/kg | Inhibitory effect on P.C.A. reaction ([1]; oral, 20 mg/kg): 16% | Inhibitory effect on P.C.A. reaction ([1]; oral, 66 mg/kg): 35% | Inhibitory effect on P.C.A. reaction ([1]; oral, 200 mg/kg): 85% | Inhibitory effect on P.C.A. reaction ([2]; intraperitoneal, 4 mg/kg): 20% | Inhibitory effect on P.C.A. reaction ([2]; intraperitoneal, 13 mg/kg): 60% | Inhibitory effect on P.C.A. reaction ([2]; intraperitoneal, 40 mg/kg): 72% | ED50 ([2]; intravenous): 4 mg/kg | Inhibitory effect on P.C.A. reaction ([2]; intravenous, 1 mg/kg): 23% | Inhibitory effect on P.C.A. reaction ([2]; intravenous, 3 mg/kg): 46% | Inhibitory effect on P.C.A. reaction ([2]; intravenous, 9 mg/kg): 65% | ED50 ([2]; ip, intraperitoneal): 11 mg/kg | ED50 ([2]; oral): 110 mg/kg | Inhibitory effect on P.C.A. reaction ([2]; oral, 20 mg/kg): 42% | Inhibitory effect on P.C.A. reaction ([2]; oral, 66 mg/kg): 33% | Inhibitory effect on P.C.A. reaction ([2]; oral, 200 mg/kg): 81% | Inhibitory effect on P.C.A. reaction ([3]; intraperitoneal, 4 mg/kg): 10% | Inhibitory effect on P.C.A. reaction ([3]; intraperitoneal, 13 mg/kg): 55% | Inhibitory effect on P.C.A. reaction ([3]; intraperitoneal, 40 mg/kg): 50% | Inhibitory effect on P.C.A. reaction ([3]; intravenous, 6.7 mg/kg): 50% | Inhibitory effect on P.C.A. reaction ([3]; intravenous, 20 mg/kg): 80% | Inhibitory effect on P.C.A. reaction ([3]; oral, 20 mg/kg): 30% | Inhibitory effect on P.C.A. reaction ([3]; oral, 66 mg/kg): 40% | Inhibitory effect on P.C.A. reaction ([3]; oral, 200 mg/kg): 65%
